# Experimental data taken from US20210386367A1, “DEVICES AND SYSTEMS FOR GASTROINTESTINAL MICROBIOME DETECTION AND MANIPULATION” (Progenity, Inc., priority 2018, published 2021).
# Like-named read-outs stand apart in the source and are kept apart here.
# Experiments:
# [1] = test system: Bacteroides non fragilis clinical isolates; test: MIC distribution against clinical isolates; type: cell-based; details: 29 Bacteroides non-fragilis isolates
# Escherichia coli = test: Broth microdilution MIC, 50 clinical isolates (incl. ESBL, one NDM-1); type: cell-based
# Method: Minimal inhibitory concentration (MIC) values were determined by broth microdilution or agar dilution in accordance with guidelines from the Clinical and Laboratory Standards Institute (CLSI; (1) “Methods for Dilution Antimicrobial Susceptibility Tests for Bacteria That Grow Aerobically; Approved Standard; 11th ed.” CLSI standard M07-A11, 2018; (2) “Performance Standards for Antimicrobial Susceptibility Testing; Twenty-Eighth Informational Supplement,” CLSI document M100-S28, 2018; and (3) “Methods for Antimicrobial Susceptibility Testing of Anaerobic Bacteria; Approved Standard—Eighth Edition,” CLSI document M11-A8, 2012).
# Tested aerobically by broth microdilution: • Escherichia coli, n=50 • Klebsiella spp., n=50 • Pseudomonas aeruginosa, n=50 • Streptococcus spp., n=50 • Staphylococcus aureus, n=50 • Enterococcus faecalis, n=50 • Enterobacter aerogenes, n=50 • Proteus mirabilis, n=50
# Broth microdilution testing of aerobic bacteria was conducted in cation-adjusted Mueller Hinton broth (MHBII). For testing streptococci, lysed horse blood (LHB) was added to MHBII broth at a final concentration of 3%. Where LHB was used, it was added after filtering.
# Broth microdilution susceptibility testing in 96-well microplates was conducted in accordance with CLSI methods (1) and (2). Automated liquid handlers were used to conduct serial dilutions and liquid transfers, including the Multidrop 384 (Labsystems, Helsinki, Finland), Biomek 2000, and the Biomek FX (Beckman Coulter, Fullerton, Calif.). All wells in columns 2 through 12 of a standard 96-well microdilution plate (Costar 3795) were filled with 150 μL of the appropriate diluent. Then, 300 μL of the test agents were added to the wells of column 1 of the plates at 100× the highest final concentration to be tested. Serial two-fold dilutions were made across the rows through column 11 using the Biomek 2000. The wells of column 12 contained no drug and served as the growth control wells. This plate served as the “mother plate” from which MIC assay plates or “daughter plates” were made.
# The daughter plates were loaded with 190 μL per well of the appropriate medium using the Multidrop 384. The daughter plates were created using the Biomek FX which transferred 2 μL of drug solution from each well of a mother plate to each corresponding well of the daughter plate in a single step. A standardized inoculum of each test organism was prepared per CLSI methods (1) to equal a 0.5 McFarland standard, followed by a dilution of 1:20 for aerobes and 1:10 for anaerobes. The plates were then inoculated with 10 μL of the diluted inoculum using the Biomek 2000 from low to high drug concentration, resulting in a final concentration of approximately 5×10^5 CFU/mL per well. An un-inoculated plate was incubated in parallel for each medium for the purpose of assessing solubility of the drug in the test media.
# Inoculated plates were stacked 3 or 4 high, covered with a sterile lid on the top plate, placed into boxes with CO2 planchets (streptococci) or plastic bags (all other isolates). Plates were incubated at 35° C. for 16-24 hr in ambient air for aerobes or for 42-48 hr in the anaerobic environment of the Bactron II anaerobe chamber (Sheldon Manufacturing Co.; Cornelius, Oreg.). Following incubation, the microplates were removed from the incubator and viewed from the bottom using a plate viewer. The MIC values were read and recorded as the lowest concentration of drug that inhibited visible growth of the organism as per CLSI methods (1) and (2).
# B. fragilis ATCC 25285 = test: Broth microdilution MIC (time-kill study); type: cell-based, Bacteroides fragilis
# B. vulgatus ATCC 8482 = test: Broth microdilution MIC (time-kill study); type: cell-based, Bacteroides vulgatus
# S. pneumoniae ATCC 49619 = test: Time-kill assay; type: cell-based, Streptococcus pneumoniae; details: 2×, 4×, 8× MIC; 2, 6, 24 hr
# S. pyogenes ATCC 49399 = test: Time-kill assay; type: cell-based, Streptococcus pyogenes; details: 2×, 4×, 8× MIC; 2, 6, 24 hr
# S. agalactiae ATCC 13813 = test: Time-kill assay; type: cell-based, Streptococcus agalactiae; details: 2×, 4×, 8× MIC; 2, 6, 24 hr
# [2] = test system: Streptococcus spp. (S. pneumoniae ATCC 49619, S. pyogenes ATCC 49399, S. agalactiae ATCC 13813); test: Agar dilution MIC (spontaneous mutation study; strain in conditions); type: cell-based
# [3] = Escherichia coli, read-out: MIC50
compound,measurement,setting,value
Cc1ncc([N+](=O)[O-])n1CCO [MTZ],Cumulative percentage of isolates inhibited at MIC,[1]; MIC 0.5 μg/mL,55.2%
same,Number of test isolates at MIC,[1]; MIC 0.5 μg/mL,12
same,Cumulative percentage of isolates inhibited at MIC,[1]; MIC 1 μg/mL,75.9%
same,Number of test isolates at MIC,[1]; MIC 1 μg/mL,6
same,Cumulative percentage of isolates inhibited at MIC,[1]; MIC 2 μg/mL,96.6%
same,Number of test isolates at MIC,[1]; MIC 2 μg/mL,6
same,Cumulative percentage of isolates inhibited at MIC,[1]; MIC >16 μg/mL,100.0%
same,Number of test isolates at MIC,[1]; MIC >16 μg/mL,1
CO/N=C(\C(=O)N[C@@H]1C(=O)N2C(C(=O)O)=C(CSc3nc(=O)c(=O)[nH]n3C)CS[C@H]12)c1csc(N)n1 [ceftriaxone],Cumulative percentage of isolates inhibited at MIC,[1]; MIC 1 μg/mL,3.4%
same,Number of test isolates at MIC,[1]; MIC 1 μg/mL,1
same,Cumulative percentage of isolates inhibited at MIC,[1]; MIC 2 μg/mL,6.9%
same,Number of test isolates at MIC,[1]; MIC 2 μg/mL,1
same,Cumulative percentage of isolates inhibited at MIC,[1]; MIC 4 μg/mL,13.8%
same,Number of test isolates at MIC,[1]; MIC 4 μg/mL,2
same,Cumulative percentage of isolates inhibited at MIC,[1]; MIC 16 μg/mL,24.1%
same,Number of test isolates at MIC,[1]; MIC 16 μg/mL,3
same,Cumulative percentage of isolates inhibited at MIC,[1]; MIC 32 μg/mL,27.6%
same,Number of test isolates at MIC,[1]; MIC 32 μg/mL,1
same,Cumulative percentage of isolates inhibited at MIC,[1]; MIC 64 μg/mL,34.5%
same,Number of test isolates at MIC,[1]; MIC 64 μg/mL,2
same,% R,Escherichia coli,Thirty-six
same,% S,Escherichia coli,64%
same,Mode,Escherichia coli,0.03 µg/mL
same,Cumulative percentage of isolates inhibited at MIC,Escherichia coli; 0.008 μg/mL,2.0%
same,Number of test isolates at MIC,Escherichia coli; 0.008 μg/mL,1
same,Cumulative percentage of isolates inhibited at MIC,Escherichia coli; 0.015 μg/mL,1.0%
same,Number of test isolates at MIC,Escherichia coli; 0.015 μg/mL,1
same,Cumulative percentage of isolates inhibited at MIC,Escherichia coli; 0.03 μg/mL,42.0%
same,Number of test isolates at MIC,Escherichia coli; 0.03 μg/mL,19
same,Cumulative percentage of isolates inhibited at MIC,Escherichia coli; 0.06 μg/mL,58.0%
same,Number of test isolates at MIC,Escherichia coli; 0.06 μg/mL,8
same,Cumulative percentage of isolates inhibited at MIC,Escherichia coli; 8 μg/mL,68.0%
same,Number of test isolates at MIC,Escherichia coli; 8 μg/mL,2
same,Cumulative percentage of isolates inhibited at MIC,Escherichia coli; 16 μg/mL,72.0%
same,Number of test isolates at MIC,Escherichia coli; 16 μg/mL,2
same,Cumulative percentage of isolates inhibited at MIC,Escherichia coli; 64 μg/mL,76.0%
same,Number of test isolates at MIC,Escherichia coli; 64 μg/mL,2
same,Cumulative percentage of isolates inhibited at MIC,Escherichia coli; >128 μg/mL,100.0%
same,Number of test isolates at MIC,Escherichia coli; >128 μg/mL,12
same,MIC90,Escherichia coli; Escherichia coli,> 128 µg/mL
same,MIC50,Escherichia coli; [3],0.06 µg/mL
same,Cumulative percentage of isolates inhibited at MIC,Escherichia coli; […],64.0%
same,Number of test isolates at MIC,Escherichia coli; […],3
same,% R,Escherichia coli; listed as CTR,36%
same,MIC90,Escherichia coli; listed as CTR,>128 µg/mL
same,MIC,B. fragilis ATCC 25285; B. fragilis MMX 123 ATCC 25285,32 µg/mL
same,MIC,"B. fragilis ATCC 25285; Bacteroides fragilis, ATCC25285, broth microdilution, read-out: MIC",32 µg/mL
same,MIC,B. vulgatus ATCC 8482; B. vulgatus ATCC 8482,2 µg/mL
same,MIC,"B. vulgatus ATCC 8482; Phocaeicola vulgatus, ATCC8482, broth microdilution, read-out: MIC",2 µg/mL
same,time-kill kinetics outcome (bactericidal = ≥3 log reduction in CFU per mL),S. pneumoniae ATCC 49619,all three drug concentrations tested demonstrated bactericidal effects at 24 hr
same,time-kill kinetics outcome (bactericidal = ≥3 log reduction in CFU per mL),S. pyogenes ATCC 49399,bactericidal effect at 4× and 8×MIC at 24 hr
same,time-kill kinetics outcome (bactericidal = ≥3 log reduction in CFU per mL),S. agalactiae ATCC 13813,"bactericidal effect at 24 hr at 8×MIC, as did ceftriaxone (6 and 24 hr)"
same,MIC,"[2]; Streptococcus agalactiae, S. agalactiae ATCC 13813, read-out: Agar MIC",0.06 µg/mL
same,MIC,"[2]; Streptococcus pneumoniae, S. pneumoniae ATCC 49619, read-out: Agar MIC",0.06 µg/mL
same,MIC,"[2]; Streptococcus pyogenes, S. pyogenes ATCC 49399, read-out: Agar MIC",0.03 µg/mL
same,MIC,"[2]; over evaluated Streptococcus spp. (range stated jointly with other groups), read-out: MIC values (agar dilution)",0.03 to 0.06 µg/mL
COc1c(N2C[C@@H]3CCCN[C@@H]3C2)c(F)cc2c(=O)c(C(=O)O)cn(C3CC3)c12 [moxifloxacin],MIC range,Escherichia coli,0.015 to 128 µg/mL
same,Mode,Escherichia coli,0.03 µg/mL
same,Cumulative percentage of isolates inhibited at MIC,Escherichia coli; 0.015 μg/mL,4.0%
same,Number of test isolates at MIC,Escherichia coli; 0.015 μg/mL,2
same,Cumulative percentage of isolates inhibited at MIC,Escherichia coli; 0.03 μg/mL,34.0%
same,Number of test isolates at MIC,Escherichia coli; 0.03 μg/mL,15
same,Cumulative percentage of isolates inhibited at MIC,Escherichia coli; 0.06 μg/mL,52.0%
same,Number of test isolates at MIC,Escherichia coli; 0.06 μg/mL,9
same,Cumulative percentage of isolates inhibited at MIC,Escherichia coli; 0.5 μg/mL,60.0%
same,Number of test isolates at MIC,Escherichia coli; 0.5 μg/mL,2
same,Cumulative percentage of isolates inhibited at MIC,Escherichia coli; 2 μg/mL,64.0%
same,Number of test isolates at MIC,Escherichia coli; 2 μg/mL,2
same,Cumulative percentage of isolates inhibited at MIC,Escherichia coli; 4 μg/mL,66.0%
same,Number of test isolates at MIC,Escherichia coli; 4 μg/mL,1
same,Cumulative percentage of isolates inhibited at MIC,Escherichia coli; 8 μg/mL,70.0%
same,Number of test isolates at MIC,Escherichia coli; 8 μg/mL,2
same,Cumulative percentage of isolates inhibited at MIC,Escherichia coli; 16 μg/mL,88.0%
same,Number of test isolates at MIC,Escherichia coli; 16 μg/mL,9
same,Cumulative percentage of isolates inhibited at MIC,Escherichia coli; 32 μg/mL,98.0%
same,Number of test isolates at MIC,Escherichia coli; 32 μg/mL,5
same,Cumulative percentage of isolates inhibited at MIC,Escherichia coli; 128 μg/mL,100.0%
same,Number of test isolates at MIC,Escherichia coli; 128 μg/mL,1
same,MIC50,Escherichia coli; [3],0.06 µg/mL
same,MIC90,"Escherichia coli; Escherichia coli, read-out: MIC90",32 µg/mL
same,Number of test isolates at MIC,Escherichia coli; […],1
"CN[C@H](CC(C)C)C(=O)N[C@H]1C(=O)N[C@@H](CC(N)=O)C(=O)N[C@H]2C(=O)N[C@H]3C(=O)N[C@H](C(=O)N[C@H](C(=O)O)c4cc(O)cc(O)c4-c4cc3ccc4O)[C@H](O)c3ccc(c(Cl)c3)Oc3cc2cc(c3O[C@@H]2O[C@H](CO)[C@@H](O)[C@H](O)[C@H]2O[C@H]2C[C@](C)(N)[C@H](O)[C@H](C)O2)Oc2ccc(cc2Cl)[C@H]1O [vancomycin, Vancomycin]",MIC,"B. fragilis ATCC 25285; Bacteroides fragilis, ATCC25285, B. fragilis MMX 123 ATCC 25285, read-out: MIC",> 16 µg/mL
same,MIC,"B. vulgatus ATCC 8482; Phocaeicola vulgatus, ATCC8482, B. vulgatus ATCC 8482, read-out: MIC",> 16 µg/mL
piperacillin/tazobactam [piperacillin-tazobactam],% I,Escherichia coli,12% ^
same,% R,Escherichia coli,8%
same,% S,Escherichia coli,80%
same,MIC50,Escherichia coli,2 µg/mL
same,MIC90,Escherichia coli,64 µg/mL
same,Mode,Escherichia coli,2 µg/mL
same,Cumulative percentage of isolates inhibited at MIC,Escherichia coli; 0.5 μg/mL,6.0%
same,Number of test isolates at MIC,Escherichia coli; 0.5 μg/mL,2
same,Cumulative percentage of isolates inhibited at MIC,Escherichia coli; 1 μg/mL,26.0%
same,Number of test isolates at MIC,Escherichia coli; 1 μg/mL,10
same,Cumulative percentage of isolates inhibited at MIC,Escherichia coli; 2 μg/mL,64.0%
same,Number of test isolates at MIC,Escherichia coli; 2 μg/mL,19
same,Cumulative percentage of isolates inhibited at MIC,Escherichia coli; 4 μg/mL,74.0%
same,Number of test isolates at MIC,Escherichia coli; 4 μg/mL,5
same,Cumulative percentage of isolates inhibited at MIC,Escherichia coli; 8 μg/mL,78.0%
same,Number of test isolates at MIC,Escherichia coli; 8 μg/mL,2
same,Cumulative percentage of isolates inhibited at MIC,Escherichia coli; 16 μg/mL,80.0%
same,Number of test isolates at MIC,Escherichia coli; 16 μg/mL,1
same,Cumulative percentage of isolates inhibited at MIC,Escherichia coli; 32 μg/mL,86.0%
same,Number of test isolates at MIC,Escherichia coli; 32 μg/mL,3
same,Cumulative percentage of isolates inhibited at MIC,Escherichia coli; 64 μg/mL,92.0%
same,Number of test isolates at MIC,Escherichia coli; 64 μg/mL,3
same,Cumulative percentage of isolates inhibited at MIC,Escherichia coli; 128 μg/mL,96.0%
same,Number of test isolates at MIC,Escherichia coli; 128 μg/mL,2
same,Cumulative percentage of isolates inhibited at MIC,Escherichia coli; >128 μg/mL,100.0%
same,Number of test isolates at MIC,Escherichia coli; >128 μg/mL,2
same,Cumulative percentage of isolates inhibited at MIC,Escherichia coli; ≤[…],2.0%
same,Number of test isolates at MIC,Escherichia coli; ≤[…],1
same,MIC,B. fragilis ATCC 25285; B. fragilis MMX 123 ATCC 25285,8 µg/mL
same,MIC,B. vulgatus ATCC 8482; B. vulgatus ATCC 8482,4 µg/mL
